Experimental data reported in patent publication US20100002929A1, “Image-based methods for measuring global nuclear patterns as epigenetic markers of cell differentiation” (The Charles Stark Draper Laboratory, Inc., priority 2004, published 2010).

What was measured:
hESC = test: Chromatin mobility by time-lapse confocal microscopy of GFP-H2B transfected hESC; format: cell-based, human; conditions: hESC transfected with GFP-H2B; data not shown
Protocol: Chromatin movement was further analyzed in hESC transfected with the fluorescent histone GFP-H2B (FIG. 4). Single confocal slices at 0.4 μm spacing (FIG. 4A) show density variations, including low-density voids (arrow in FIG. 4A, 0.4 μm). The movement of cell-specific bright chromatin densities was analyzed by overlaying images at 0, 5 and 10 min, assigned to the blue, green and red channels respectively (FIGS. 4B-F) and by vector analysis where movement of bright spots was traced with a yellow line at 1 min intervals and red arrows were placed at the last position of the spot (FIG. 4G). Different kinds of nuclear movement were detected including internal mixing of chromatin, indicated by movement of bright chromatin domains without envelope deformation (pluripotent hESC, FIG. 4B), deformation of the envelope and chromatin (pluripotent hESC, FIG. 4C), and multidirectional streaming of chromatin (2 day differentiated hESC, FIG. 4D). Long-range coordination of chromatin movement was infrequent in hESC and prevalent, albeit at slower speeds, in differentiated cells. An increase in coherence length was most noticeable in 5-week differentiated hESC (FIG. 4E). In contrast, endothelial cells show small amplitude, sub-em tethered stochastic movement (FIG. 4F) as reported previously for somatic cells (Marshall, Straight et al. 1997). […]

Oct4 promoter = conditions: combined TSA and 5Aza 2′ deoxycytidine treatment of TE; cited from earlier work
HDAC1 = HDAC1 immunostaining (confocal microscopy) in HeLa cells; conditions: FIG. 15

| SMILES | effect on chromatin mobility (hESC) | Oct4 expression (Oct4 promoter) | Oct4 promoter methylation (Oct4 promoter) | HDAC1 staining (HDAC1) |
| --- | --- | --- | --- | --- |
| COC(=O)Nc1nc2ccc(C(=O)c3cccs3)cc2[nH]1 [nocodazole] | no effect on chromatin mobility | – | – | – |
| CC(/C=C/C(=O)NO)=C\[C@@H](C)C(=O)c1ccc(N(C)C)cc1 [TSA] | – | induces Oct4 expression | hypomethylates the Oct4 promoter | complete absence of HDAC1 staining |
| Nc1ncn([C@H]2C[C@H](O)[C@@H](CO)O2)c(=O)n1 [5Aza 2′ deoxycytidine] | – | induces Oct4 expression | hypomethylates the Oct4 promoter | – |
| C=C1[C@@H](C)[C@H]2[C@H](Cc3ccccc3)NC(=O)[C@]23[C@H](OC(C)=O)/C=C/[C@@](C)(O)C(=O)[C@@H](C)C/C=C/[C@H]3[C@@H]1O [cytochalasin D] | slight acceleration of chromatin mobility | – | – | – |
